In PubChem BioAssay (NCI):
Several values for one entry are separate records, joined by “and”; a condition that tells them apart may be missing. Identical values can stand only once.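 Briefly, cells in 96-well plates were exposed to five compound concentrations for 48 h, and endpoints were estimated by linear interpolation. Abbreviation: GI50, concentration required for 50% inhibition of growth. TGI denotes the concentration required for complete inhibition of growth.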

How the values were obtained:
Assay in all cases: NCI anticancer screen, dose series, 48 h
OVCAR-3 ovarian = system: OVCAR-3 ovarian
COLO 205 colon = system: COLO 205 colon
SF-268 CNS = system: SF-268 CNS
OVCAR-5 ovarian = system: OVCAR-5 ovarian
OVCAR-8 ovarian = system: OVCAR-8 ovarian
HT29 colon = system: HT29 colon
HCT-15 colon = system: HCT-15 colon
LOX IMVI melanoma = system: LOX IMVI melanoma
CCRF-CEM leukemia = system: CCRF-CEM leukemia
EKVX NSCLC = system: EKVX NSCLC

SMILES | TGI (OVCAR-3 ovarian) | TGI (COLO 205 colon) | TGI (SF-268 CNS) | TGI (OVCAR-5 ovarian) | TGI (OVCAR-8 ovarian) | TGI (HT29 colon) | TGI (HCT-15 colon) | TGI (LOX IMVI melanoma) | GI50 (OVCAR-3 ovarian) | GI50 (COLO 205 colon) | GI50 (CCRF-CEM leukemia) | TGI (CCRF-CEM leukemia) | GI50 (SF-268 CNS) | GI50 (OVCAR-5 ovarian) | GI50 (OVCAR-8 ovarian) | GI50 (HT29 colon) | GI50 (HCT-15 colon) | GI50 (LOX IMVI melanoma) | GI50 (EKVX NSCLC) | TGI (EKVX NSCLC)
CCOC(=O)C1=C(NC(C)(C)C)OCC1=O | > 100 µM | > 100 µM | > 100 µM | > 100 µM | > 100 µM | > 100 µM | > 100 µM | > 100 µM | – | – | – | – | – | – | – | – | – | – | – | –
Oc1ccc(Br)cc1/C=N/NC(=S)NC12CC3CC(CC(C3)C1)C2 | 3.71 µM | 11.1 µM | 4.14 µM | 4.78 µM | 4.4 µM | 3.93 µM | 3.49 µM | 2.88 µM | 1.67 µM | 3.44 µM | 0.897 µM | 8.14 µM | 1.44 µM | 1.89 µM | 1.6 µM | 2.02 µM | 0.734 µM | 1.22 µM | – | –
CCN(CC)CCCCCOc1cc(O)c2c(=O)cc(-c3ccccc3)oc2c1 | 4.94 µM | 5.02 µM | 25.5 µM | 6.97 µM | 25.5 µM | 5.5 µM | 3.76 µM | 2.96 µM | 1.93 µM | 2.13 µM | – | – | 7.82 µM | 2.37 µM | 11.5 µM | 2.21 µM | 1.58 µM | 1.57 µM | 6.93 µM | 23.6 µM
COc1cc(/C=C2\CC3C4CC=C5C[C@@H](N6CCCC6)CC[C@]5(C)C4CC[C@]3(C)[C@H]2OC(C)=O)ccc1OCCN1CCCCC1 (stereo partly drawn) | 3.34 µM | – | 5.6 µM | 2.85 µM | 3.42 µM | > 100 µM | 2.8 µM | 2.57 µM | 1.64 µM | – | 0.0346 µM | 0.777 µM | 2.26 µM | 1.46 µM | 1.8 µM | 1.55 µM | 1.37 µM | 1.03 µM | 1.99 µM | 4.3 µM
Cc1[nH]nc2c1N=C(c1ccccc1F)c1cc(C#N)ccc1N2 | 8.31 µM | 5.34 µM | 5.8 µM | 18.8 µM | 12.3 µM | 7.41 µM | – | 16.3 µM | 0.0887 µM | 0.134 µM | 0.113 µM | > 13.6 µM | 0.316 µM | 7.12 µM | 3.38 µM | 0.118 µM | – | 0.285 µM | – | –
O=C(O)C(Br)C(Br)c1ccccc1[N+](=O)[O-] (stereo not drawn) | > 100 µM | > 100 µM | > 100 µM | > 100 µM | > 100 µM | > 100 µM | > 100 µM | > 100 µM | – | – | – | – | – | – | – | – | – | – | – | > 100 µM
COc1ccc(NC(=O)Nc2ccc(Nc3nc(C)cc(Nc4ccc(C)cc4)n3)cc2)cc1 | 2.81 µM | 3.62 µM | 5.07 µM | 3.22 µM | – | – | 3.29 µM | 3.35 µM | 1.35 µM | 1.94 µM | – | – | 2.16 µM | 1.72 µM | – | – | 1.63 µM | 1.79 µM | 2.03 µM | 4.42 µM
O=C(O)c1ccc(N=Nc2cc(S(=O)(=O)O)c3cccnc3c2O)cc1 | > 100 µM | > 100 µM | > 100 µM | > 100 µM | > 100 µM | > 100 µM | > 100 µM | > 100 µM | – | – | – | – | – | – | – | – | – | – | – | > 100 µM
CCc1ccccc1-n1c2nc(=O)n(C)c(=O)c-2nc2ccccc21 | 6.79 µM | 12.5 µM | 24 µM | 34.3 µM | 21.6 µM | 14.3 µM | 23.4 µM | – | – | – | – | 39.3 µM | – | – | – | – | – | – | – | 24.6 µM
CC(C)CC(CNC(Cc1ccc(Cl)cc1)C(N)=O)NC(=O)C(Cc1cnc[nH]1)NC(=O)CNC(=O)C(NC(=O)C(C)NC(=O)C(Cc1c[nH]c2ccccc12)NC(=O)C(CCC(=O)O)NC(=O)C(N)Cc1ccccc1)C(C)C (stereo not drawn) | > 133 µM | > 133 µM | – | – | > 133 µM | > 133 µM | > 133 µM | – | – | – | – | > 133 µM | – | – | – | – | – | – | – | > 133 µM
CC(F)(F)c1cc(F)ccc1-c1sc2cc(O)ccc2c1Oc1ccc(/C=C/C(=O)O)cc1 | 20.9 µM | – | 24.1 µM | 37.7 µM | 69.1 µM | 36.1 µM | 18.2 µM | 21.9 µM | 8.81 µM | – | 6.68 µM | 94.4 µM | 7.31 µM | 17.4 µM | 12.2 µM | 11.8 µM | 4.13 µM | 6.96 µM | 10.6 µM | 39.6 µM
CC[C@@H](C)[C@H]([C@H](CC(=O)N1CCC[C@@H]1[C@@H](OC)[C@H](C)C(=O)N[C@H](Cc1ccccc1)c1nccs1)OC)N(C)C(=O)[C@H](NC(=O)[C@@H](C(C)C)N(C)C)C(C)C | 0.000158 µM and < 0.087 µM | 0.000302 µM | – | – | – | 0.000849 µM | 0.0054 µM | – | – | – | 0.000257 µM and 0.000425 µM | – | – | < 0.0152 µM | 0.000425 µM | – | – | 0.000425 µM | – | –
O=C(CCC(=O)N/N=C/c1ccccc1O)N/N=C/c1ccccc1O | > 100 µM | > 100 µM | 52.4 µM | > 100 µM | > 100 µM | > 100 µM | > 100 µM | – | – | – | – | – | – | – | – | – | – | – | – | 56.4 µM
C[C@@]1(c2ncncc2F)NC(=O)c2cc(-c3cn[nH]c3)ccc21 | > 100 µM | – | > 100 µM | 99 µM | > 100 µM | 90.9 µM | > 100 µM | > 100 µM | 21.9 µM | – | 42.3 µM | > 100 µM | 28.4 µM | 22.4 µM | 26.9 µM | 7.46 µM | 20.8 µM | 8.23 µM | 22.1 µM | > 100 µM
CCOC(=O)N1C/C(=C/c2ccc(OC)cc2)C(=O)/C(=C/c2ccc(OC)cc2)C1 | 7.81 µM | 5.28 µM | > 45.1 µM | 21.6 µM | 14.6 µM | 2.53 µM | 4.91 µM | 2.84 µM | 2.75 µM | 2.18 µM | 2.85 µM | > 100 µM | 3.58 µM | 4.23 µM | 3.49 µM | 0.79 µM | 1.64 µM | 0.979 µM | – | –
COc1ccc(/C(Cl)=C(\C=O)c2ccc(Br)cc2)cc1OC | > 100 µM | > 100 µM | > 100 µM | > 100 µM | > 100 µM | > 100 µM | > 100 µM | > 100 µM | – | – | – | – | – | – | – | – | – | – | – | > 100 µM
COc1cc(OC)c(OC)cc1/C=C1\C=Cc2ccccc21 | – | > 100 µM | > 100 µM | > 100 µM | > 100 µM | > 100 µM | 61.4 µM | 33.4 µM | – | – | – | > 100 µM | – | – | – | – | – | – | – | > 100 µM
COc1ccccc1CNC(=O)C1c2ccccc2C(=O)N(CC(C)C)C1c1cccs1 (stereo not drawn) | 89.1 µM | 39.1 µM | > 100 µM | > 100 µM | > 100 µM | 90.5 µM | > 100 µM | 89.1 µM | 25.7 µM | 18.2 µM | – | – | 30.6 µM | 34.6 µM | 23.6 µM | 17 µM | 20.8 µM | 27.8 µM | – | –
COc1ccc(OC)c(-c2cc(-c3ccccc3)nn2-c2ccc(S(N)(=O)=O)cc2)c1 | 19 µM | – | 27.5 µM | 28.8 µM | 27 µM | – | 17.1 µM | – | 5.91 µM | – | 4.17 µM | > 100 µM | 12.6 µM | 15 µM | 10.2 µM | – | 5.07 µM | – | 18.1 µM | 39.1 µM
O=C(NCCN1CCOCC1)Nc1ccc(-c2cc3c(Nc4ccc(Oc5cccc(C(F)(F)F)c5)c(Cl)c4)ncnc3s2)cc1 | 8.54 µM | 2.95 µM | 7.51 µM | 6.32 µM | 9.88 µM | 1.69 µM | 1.92 µM | 1.58 µM | 2.34 µM | 1.25 µM | – | – | 1.76 µM | 1.66 µM | 2.4 µM | 0.896 µM | 0.95 µM | 0.841 µM | 2.27 µM | 8.61 µM
CS(=O)c1ccc(-c2nc(-c3ccc(F)cc3)c(-c3ccncc3)[nH]2)cc1 (stereo not drawn) | > 100 µM | 50.2 µM | > 100 µM | > 100 µM | > 100 µM | > 89.4 µM | > 100 µM | – | 25.9 µM | 14.7 µM | 27.3 µM | > 100 µM | 49.4 µM | 55 µM | 29.6 µM | 10.7 µM | 30.2 µM | – | 49 µM | > 100 µM
CCc1ccc(/C(C)=N/NC(N)=S)cc1 | > 100 µM | > 100 µM | > 100 µM | 72.3 µM | > 100 µM | > 100 µM | – | – | – | – | – | – | – | – | – | – | – | – | – | > 100 µM
COc1cc2nc(-c3ccc(-n4cncc4-c4ccc(N)cc4)cc3)sc2c(OC)c1OC | 15.1 µM | – | 62.1 µM | > 100 µM | 57.8 µM | > 100 µM | – | > 100 µM | 2.73 µM | – | – | – | 12.3 µM | 34.3 µM | 4.23 µM | 2.79 µM | – | 3.65 µM | 2.49 µM | 75.9 µM
COc1ccc(/C=C/c2nc(=S)[nH][nH]2)cc1 | > 100 µM | – | > 100 µM | > 100 µM | > 100 µM | > 100 µM | > 100 µM | > 100 µM | – | – | – | > 100 µM | – | – | – | – | – | – | – | > 100 µM
CCOC(=O)c1c(C)n(CC(C)C)c2c1cc1oc(=O)c(=O)n3cnc2c13 | 25.9 µM | > 50 µM | > 50 µM | > 50 µM | 36.7 µM | > 50 µM | > 50 µM | 16 µM | 11.2 µM | 20.7 µM | – | – | 18 µM | 29.6 µM | 12.5 µM | 17.2 µM | 15.2 µM | 8.45 µM | 17.4 µM | > 50 µM
